According to patent US12304909B2, “Compounds and their use in therapy” (IMPERIAL COLLEGE INNOVATIONS LIMITED, priority 2018, dated 2025):
“And” between values parts separate entries of the source, which are not always exact repeats. Equal values may be shown once. Read-outs that look alike come from different tables or passages of the source.

Experiments:
MRC5 cells = assay: Metabolic activity assay (MTS assay), MRC5; format: cell-based, human
Method: (§1) Example NMT inhibitors of the present invention were tested for activity in an in vitro metabolic activity assay using the human cell line MRC5. Comparative Examples 1, 2, 3, 4, 5 and 6 were also tested in the same metabolic activity assay. Compounds having activity in inhibiting metabolic activity in the assay are expected to be useful as agents for preventing and/or treating cancer, by virtue of being inhibitors of human NMT1 and/or NMT2.
MRC5 cells (obtained from Dr David Mann's group, Imperial College; cell type: fibroblasts cells which derive from normal lung tissue) were grown in DMEM media (supplemented with 10% FBS) and were seeded in a 96-well plate, 24 h prior to treatment. Cell suspensions were prepared by adjusting the cell density to the appropriate concentration (as stated in the Table 1 below) and 50 μL of the cell suspension was transferred to wells B-G in columns 2-11 of a 96-well plate.
100 μL of growth media (DMEM media) containing 0.2% DMSO was added to wells B-G in columns 2 and 11 as positive controls, and 100 μl of growth media containing Puromycin (3 μg/mL; final concentration in the plate 2 μg/mL) was added to wells B-G in column 3 as a negative control. Seven concentrations of NMT inhibitor stock solution were prepared for each Example (Example 1 and 2) and each Comparative Example (Comparative Examples 1, 2, 3, 4, 5 and 6) tested (same final percentage of DMSO, dilution factor=3 starting from 15 μM or 150 μM). 100 μL of inhibitor stock solution was added to wells B-G in columns 4-10 of a 96-well plate (final concentration of Example compound or Comparative Example compound in the plate starting from 10 μM or 100 μM; total volume in each well was 150 μL). The plate was incubated at 37° C. with 5% CO2 level.
After 72 h, 20 μL MTS reagent (Promega, prepared according to the supplier protocol) was added to each well of the 96-well plate. The plate was incubated at 37° C. for 2 h and the absorbance per well was measured at 490 nm with an EnVision plate reader. The average absorbance value of the negative control (Puromycin-treated cells) was subtracted from each value and the metabolic activity was calculated as a percentage relative to the positive control (DMSO-treated cells). EC50 values were calculated using GraphPad.

[1] = Human liver microsomes half life; format: in vitro ADME; conditions: pH 7.4, read-out: Human liver microsomes t ½
Method: (§2) Example Compound 1 was tested for metabolic stability in an assay using human liver microsomes. Comparative Examples 2, 3, 4, 5 and 6 were also tested in the same assay. Compounds having good metabolic stability in the assay are expected to be especially useful as agents for preventing and/or treating cancer, by having a long half-life in human patients
Frozen human liver microsomes obtained from Corning, USA (cat #452117) were thawed and diluted with 100 mM of pH 7.4 phosphate buffer to give a 1 mg/ml solution. An NADPH regeneration system (NRS) was prepared as a solution containing 13 mM NADP, 33 mM glucose-6-phosphate, 33 mM MgCl2 and 4U/mL glucose-6-phosphate dehydrogenase in 100 mM of pH7.4 phosphate buffer. The test compound (4 mM) in DMSO was diluted with acetonitrile to provide a 100 μM sub-stock then further diluted with 100 mM of pH7.4 phosphate buffer to provide a 2 μM working solution. The liver microsome solution and NRS were incubated at 37° C. before use. To each well of the test plate was dispensed 60 μL of buffer, 50 μL of test compound solution and 10 μL of NRS. A reaction was initiated by addition of 40 μL of liver microsome solution. Wells were incubated for an appropriate time (0, 5, 10, 20, 30 and 60 min) then quenched with 300 μL of acetonitrile containing reference standards atenolol, propranolol, diclofenac, verapamil). All plates were centrifuged at 3500 rpm for 20 min at 15° C. to pellet the debris. 110 μL supernatant was diluted 110 μL water and quantitated using LC-MS/MS.
The results were used to calculate the % Remaining of the test compound at time point t=100×˜[(AUC at time point t)/(AUC at T=0)]. A linear regression curve was fitted to a plot of natural logarithm (In) of AUC against time. The T-half (min)=0.693/slope.

human NMT1 (HsNMT1) = molecular target: T1, human NMT1 (HsNMT1) (Homo sapiens, UniProt P30419); assay: HsNMT1 IC50, fluorescence-based assay detecting CoA with CPM; format: biochemical
T1 sequence (P30419 1-496): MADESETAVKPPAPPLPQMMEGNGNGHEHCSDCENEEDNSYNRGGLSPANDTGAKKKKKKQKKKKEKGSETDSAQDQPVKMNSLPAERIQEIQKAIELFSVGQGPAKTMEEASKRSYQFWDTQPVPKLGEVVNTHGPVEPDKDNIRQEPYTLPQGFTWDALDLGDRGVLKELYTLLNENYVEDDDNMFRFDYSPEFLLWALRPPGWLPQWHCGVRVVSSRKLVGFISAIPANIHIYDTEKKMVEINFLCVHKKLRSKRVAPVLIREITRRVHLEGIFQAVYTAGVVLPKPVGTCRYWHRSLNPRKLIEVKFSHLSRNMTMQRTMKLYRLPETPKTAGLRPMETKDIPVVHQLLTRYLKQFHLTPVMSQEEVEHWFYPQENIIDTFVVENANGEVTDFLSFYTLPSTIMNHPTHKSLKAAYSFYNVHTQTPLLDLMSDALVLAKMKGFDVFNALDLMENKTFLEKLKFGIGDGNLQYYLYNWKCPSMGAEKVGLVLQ
Method: The IC50 values for human NMT1 (HsNMT1) of four Example compounds of the invention described above (Examples 1-4) and six comparative examples (Comparative Examples 1, 2, 3, 4, 5 and 6) were measured using a sensitive fluorescence-based assay based on detection of CoA by 7-diethylamino-3-(4-maleimido-phenyl)-4-methylcoumarin, as described in Goncalves, V., et al., Analytical Biochemistry, 2012, 421, 342-344 and Goncalves, V., et al., J. Med. Chem, 2012, 55, 3578.

Rat hepatocyte half life = format: in vitro ADME, Sprague-Dawley rats; conditions: pooled cryopreserved rat hepatocytes, pH 7.4; pooled male Sprague-Dawley rat hepatocytes; read-out: Rat Hepatocyte t ½
Method: as §2, with “rat metabolic assays” for “an assay”, “hepatocytes derived from pooled male Sprague-Dawley rats.” for “human liver microsomes.”, “3” for “3, 4, 5”, “4” for “6”, “patients.” for “patients”
Frozen pooled rat hepatocytes obtained from LifeTechnologies were thawed and purified according to the manufacturer's instructions. The test compound (4 mM) in DMSO was diluted with acetonitrile to provide a 100 μM sub-stock then further diluted with pH7.4 Krebs-Henseleit buffer supplemented with CaCl2), NaHCO3, HEPES, fructose and glycine) to provide a 2 μM working solution. 25 μL of working solution was incubated at 37° C., treated with 25 μL of rat hepatocyte suspension (containing 1×10^6 cells/mL) and incubated at 37° C. with 5% CO2 level at 95% relative humidity. Wells were incubated for an appropriate time (0, 15, 30, 45, 60 and 75 min) then quenched with 250 μL of acetonitrile containing reference standards diltiazem, 7-ethoxycoumarin and propranolol). The plates were shaken, sonicated for 5 min then cooled to 4° C. until all sampling was complete. All plates were centrifuged at 4000 rpm for 20 min to pellet the debris. 110 μl supernatant was diluted 110 μL water and quantitated using LC-MS/MS.
The results were used to calculate the % Remaining of the test compound at time point t=100×˜[(AUC at time point t)/(AUC at T=0)]. A linear regression curve was fitted to a plot of natural logarithm (In) of AUC against time. The T-half (min)=0.693/slope

MDA MB 231 cells = assay: CellTiter-Blue assay, MDA MB 231; format: cell-based, human
Method: as §1, with “in” for “in an”, “CellTiter-Blue® assays” for “metabolic activity assay”, “MDA MB 231, LY 12318, or BL-41.” for “MRC5.”, “1” for “1, 2, 3, 4, 5”, “2” for “6”, “assays.” for “metabolic activity assay.”
(§3) MDA MB 231 cells (obtained from Professor Eric Aboagye, Hammersmith Hospital; cell type: triple negative breast cancer) were grown in low glucose DMEM in 5% CO2 media (supplemented with 10% FBS); LY 12318 cells (obtained from Dr Martin Janz, Max Delbrueck Center; cell type: B cell lymphoma patient derived xenograft) were grown in DMEM media (supplemented with 10% FBS); and BL-41 cells (obtained from Cell Services at the Crick Institute; cell type: Burkitt's Lymphoma) were grown in RPMI-1640 media in 5% CO2 (supplemented with 10% FBS). The MDA MB 231 cells, LY 12318 cells or BL-41 cells were seeded in 96-well plates, 24 h prior to treatment. Cell suspensions were prepared by adjusting the cell density to the appropriate concentration (as stated in the Table 2 below) and 50 μL of the cell suspension was transferred to wells B-G in columns 2-11 of a 96-well plate.
(§4) Twenty-four hours later, 50 μl of growth media (low glucose DMEM in 5% CO2 media supplemented with 10% FBS for MDA MB 231 cells; DMEM media in 5% CO2 supplemented with 10% FBS for LY 12318 cells; or RPMI-1640 media supplemented with 10% FBS for BL-41 cells) containing 0.0004% DMSO (positive control), a mix of Puromycin and Staurosporine (negative controls, final concentration 2 μg/mL and 1 μM respectively) or different concentrations of each Example (Example 1 and 2) or each Comparative Example (Comparative Example 1 and 2) (dilution factor=3, starting at […], final concentration in the plate starting from 10 μM) were prepared and added to a well of the 96-well plate. The plate was incubated at 37° C. with 5% CO2 level.
(§5) 72 hours later, 20 μl/well CellTiter-Blue® (G8081, Promega) were added to the plates according to the manufacturer's protocol, the plate was incubated at 37° C. for 4 h for MDA MB 231 cells and BL-41 cells, or 3 h for LY 12318 cells, followed by measuring the absorbance per well at 570 nm using an EnVision plate reader. The negative control values were subtracted from every value. The metabolic activity was calculated as a percentage relative to the positive control. The EC50 values were calculated using GraphPad Prism.

LY 12318 cells = assay: CellTiter-Blue assay, LY 12318; format: cell-based, human; conditions: 72 h, read-out: LY12318 EC50
Method: as §1, with “in” for “in an”, “CellTiter-Blue® assays” for “metabolic activity assay”, “MDA MB 231, LY 12318, or BL-41.” for “MRC5.”, “1” for “1, 2, 3, 4, 5”, “2” for “6”, “assays.” for “metabolic activity assay.”
as §3, §4, §5

BL-41 cells = assay: CellTiter-Blue assay, BL-41; format: cell-based, human
Method: as §1, with “in” for “in an”, “CellTiter-Blue® assays” for “metabolic activity assay”, “MDA MB 231, LY 12318, or BL-41.” for “MRC5.”, “1” for “1, 2, 3, 4, 5”, “2” for “6”, “assays.” for “metabolic activity assay.”
as §3, §4, §5

half-life at 0.625 µM [1] [min]	IC50 (human NMT1 (HsNMT1))	Structure (SMILES)	EC50 (MRC5 cells; Homo sapiens, MRC5, 72 h) [nM]	EC50 (MDA MB 231 cells; Homo sapiens, MDA-MB-231, 72 h) [nM]	EC50 (LY 12318 cells; Homo sapiens) [nM]	also measured
4		Cc1nn(C)c(C)c1CCOc1c(F)cccc1-c1ccc2c(c1)c(CN(C)C)nn2C [Comparative Example 6, 1-(5-(3-fluoro-2-(2-(1,3,5-trimethyl-1H-pyrazol-4-yl)ethoxy)phenyl)-1-methyl-1H-indazol-3-yl)-N,N-dimethylmethanamine]	38			
	6.3 nM	CNC(=O)c1nn(C)c(C)c1CCOc1c(-c2ccc3ncc(CCN)n3c2)ccc(Cl)c1F [Example Compound 4, 4-(2-{6-[3-(2-aminoethyl)imidazo[1,2-a]pyridin-6-yl]-3-chloro-2-fluorophenoxy}ethyl)-N,1,5-trimethyl-1H-pyrazole-3-carboxamide]				
12	~1 nM and 1 nM	Cc1c(CCOc2cc(F)ccc2-c2ccc3ncc(CN(C)C)n3c2)c(C(=O)N(C)C)nn1C [Comparative Example 4, 4-[2-(2-{3-[(dimethylamino)methyl]imidazo[1,2-a]pyridin-6-yl}-5-fluorophenoxy)ethyl]-N,N,1,5-tetramethyl-1H-pyrazole-3-carboxamide]	63			half-life at 1 µM (Rat hepatocyte half life): 32 min
		CNC(=O)c1nn(C)c(C)c1CCOc1cc(Cl)ccc1-c1ccc2ncc(CCN)n2c1 [Example Compound 2, 4-(2-{2-[3-(2-aminoethyl)imidazo[1,2-a]pyridin-6-yl]-5-chlorophenoxy}ethyl)-N,1,5-trimethyl-1H-pyrazole-3-carboxamide]	< 40	< 70	< 70	EC50 (MRC5 cells; 72 h): 37 nM; EC50 (MDA MB 231 cells; 72 h): 45 nM; EC50 (LY 12318 cells): 69 nM; EC50 (BL-41 cells; 72 h): 24 nM
	2 nM	Cc1c(CCOc2cc(F)ccc2-c2ccc3ncc(CCN)n3c2)c(C(=O)N(C)C)nn1C [Comparative Example 1, 4-(2-{2-[3-(2-aminoethyl)imidazo[1,2-a]pyridin-6-yl]-5-fluorophenoxy}ethyl)-N,N,1,5-tetramethyl-1H-pyrazole-3-carboxamide]	450	285	246	EC50 (BL-41 cells; Homo sapiens, BL-41, 72 h): 91 nM
	4.2 nM	Cc1c(CCOc2c(-c3ccc4ncc(CCN)n4c3)ccc(Cl)c2F)c(C(=O)N(C)C)nn1C [Example Compound 3, 4-(2-{6-[3-(2-aminoethyl)imidazo[1,2-a]pyridin-6-yl]-3-chloro-2-fluorophenoxy}ethyl)-N,N,1,5-tetramethyl-1H-pyrazole-3-carboxamide]				
